A word on the IC50: it is the concentration needed to halve the response being measured. Read a high IC50 as lower potency.

Results on 27 compounds are retold here after patent publication US10543198B2 (Celgene Quanticel Research, Inc., priority 2014, dated 2020).

Experiment [1] relates to THP-1 (AML) cells. Nature of the experiment: LSD1 CD11b Cellular Assay (flow cytometry). Format: cell-based. The settings on record: CD11b expression in THP-1 cells, 4 days incubation. How it is done:
To analyze LSD1 inhibitor efficacy in cells, a CD11b flow cytometry assay was performed. LSD1 inhibition induces CD11b expression in THP-1 (AML) cells which can be measured by flow cytometry. […] LSD1 test compounds were serially diluted in DMSO. The dilutions were added to each well accordingly to a final concentration of 0.2% DMSO. The cells were incubated at 37 degrees Celsius in 5% CO2 for 4 days. 250 μL of each well was transferred to a well in a 96 well round bottom plate. The plate was centrifuged at 1200 rpm at 4 degrees Celsius in a Beckman Coulter Alegra 6KR centrifuge for 5 minutes. The media was removed leaving the cells at the bottom of the wells. The cells were washed in 100 μL cold HBSS (Hank's Balanced Salt Solution) plus 2% BSA (Bovine Serum Albumin) solution and centrifuged at 1200 rpm at 4 degrees Celsius for 5 minutes. The wash was removed. […] The cells were centrifuged and washed two times in 100 μl HBSS plus 2% BSA. After the final spin the cells were resuspended in 100 μL HBSS plus 2% BSA containing 1 ug/mL DAPI (4′,6-diamidino-2-phenylindole). The cells were then analyzed by flow cytometry in a BD FACSAria machine. Cells were analyzed for CD11b expression. The percent of CD11b expressing cells for each inhibitor concentration was used to determine an IC50 curve for each compound analyzed.

Experiment [2] addresses full-length human LSD1 (Homo sapiens (Human), UniProt O60341). Nature of the experiment: In Vitro Enzyme Inhibition Assay - LSD-1 (TR-FRET). The conditions noted are these: 0.1 nM LSD1, H3K4me1-biotin peptide. In kind it is biochemical. How it is done: This assay determines the ability of a test compound to inhibit LSD1 demethylase activity.
The enzymatic assay of LSD1 activity is based on Time Resolved-Fluorescence Resonance Energy Transfer (TR-FRET) detection.
The ability of the compounds disclosed herein to inhibit LSD1 activity was quantified and the respective IC50 value was determined.

As for “4-[5-(4-methylphenyl)-1-[[(2R)-morpholin-2-yl]methyl]pyrrolo[3,2-b]pyridin-6-yl]benzonitrile [Example 48]”, the IC50 in experiment [1] is over 10000 nM.

With `Cc1ccc(-c2nc3ccn(CC4(F)CCNC4)c3cc2-c2ccc(C#N)cc2)cc1` (centres unmarked) [Example 9, 4-[1-[(3-fluoropyrroridin-3-yl)methyl]-5-(4-methylphenyl)pyrrolo[3,2-b]pyridin-6-yl]benzonitrile], the IC50 in experiment [2] is under 100 nM; in experiment [1] (Homo sapiens, 96 h), 100 to 1000 nM.

On to `Cn1cc2cc(-c3ncc(N4CCC(N)CC4)nc3-c3ccc(C#N)c(F)c3)ccc2n1` [Example 49, 4-[6-(4-aminopiperidin-1-yl)-3-(2-methyl-2H-indazol-5-yl)pyrazin-2-yl]-2-fluorobenzonitrile], for which the IC50 in experiment [2] is under 100 nM; in experiment [1] (Homo sapiens, 96 h) it was under 100 nM.

On to `CNC1CCN(c2cnc(-c3ccc4nn(C)cc4c3)c(-c3ccc(C#N)c(F)c3)n2)CC1` [Example 50, 2-fluoro-4-[3-(2-methyl-2H-indazol-5-yl)-6-[4-(methylamino)piperidin-1-yl]pyrazin-2-yl]benzonitrile], for which the concentration for half-maximal inhibition (IC50) is under 100 nM in experiment [2] and under 100 nM in experiment [1] (Homo sapiens, 96 h).

Consider `Cn1ncc2cc(-c3ncc(N4CCC(N)CC4)nc3-c3ccc(C#N)c(F)c3)ccc21` [Example 51, 4-[6-(4-aminopiperidin-1-yl)-3-(1-methyl-1H-indazol-5-yl)pyrazin-2-yl]-2-fluorobenzonitrile], for which the IC50 in experiment [2] was under 100 nM; in experiment [1] (Homo sapiens, 96 h), under 100 nM.

Regarding `Cn1cc2ccc(-c3ncc(N4CCC(N)CC4)nc3-c3ccc(C#N)c(F)c3)cc2n1` [Example 52, 4-[6-(4-aminopiperidin-1-yl)-3-(2-methyl-2H-indazol-6-yl)pyrazin-2-yl]-2-fluorobenzonitrile], the IC50 in experiment [2] was under 100 nM; in experiment [1] (Homo sapiens, 96 h) it was under 100 nM.

On to `Cn1nnc2cc(-c3ncc(N4CCC(N)CC4)nc3-c3ccc(C#N)c(F)c3)ccc21` [Example 53, 4-[6-(4-aminopiperidin-1-yl)-3-(1-methyl-1H-1,2,3-benzotriazol-5-yl)pyrazin-2-yl]-2-fluorobenzonitrile], for which the IC50 is under 100 nM in experiment [2] and under 100 nM in experiment [1] (Homo sapiens, 96 h).

Take `Cn1nnc2cc(-c3ncc(N4CCC(N)CC4)nc3-c3ccc(C#N)c(F)c3)cnc21` [Example 54, 4-[6-(4-aminopiperidin-1-yl)-3-{3-methyl-3H-[1,2,3]triazolo[4,5-b]pyridin-6-yl}pyrazin-2-yl]-2-fluorobenzonitrile]: the IC50 in experiment [2] is under 100 nM; in experiment [1] (Homo sapiens, 96 h) it was under 100 nM.

Regarding `Cn1ccc2cc(-c3ncc(N4CCC(N)CC4)nc3-c3ccc(C#N)c(F)c3)cnc21` [Example 55, 4-[6-(4-aminopiperidin-1-yl)-3-{1-methyl-1H-pyrrolo[2,3-b]pyridin-5-yl}pyrazin-2-yl]-2-fluorobenzonitrile], the IC50 was under 100 nM in experiment [2] and under 100 nM in experiment [1] (Homo sapiens, 96 h).

Regarding `CNC1CCN(c2cnc(-c3ccc4c(c3)nnn4C)c(-c3ccc(C#N)c(F)c3)n2)CC1` [Example 56, 2-fluoro-4-{6-[4-(methylamino)piperidyl]-3-(1-methylbenzotriazol-5-yl)pyrazin-2-yl}benzenecarbonitrile], the IC50 was under 100 nM in experiment [2] and under 100 nM in experiment [1] (Homo sapiens, 96 h).

As for `CNC1CCN(c2cnc(-c3ccc(N(C)C)nc3)c(-c3ccc(C#N)c(F)c3)n2)CC1` [Example 57, 4-{3-[6-(dimethylamino)(3-pyridyl)]-6-[4-(methylamino)piperidyl]pyrazin-2-yl}-2-fluorobenzenecarbonitrile], the IC50 in experiment [2] was under 100 nM; in experiment [1] (Homo sapiens, 96 h), under 100 nM.

With `CNC1CCN(c2cnc(-c3cnc(N(C)C)nc3)c(-c3ccc(C#N)c(F)c3)n2)CC1` [Example 58, 4-{3-[2-(dimethylamino)pyrimidin-5-yl]-6-[4-(methylamino)piperidyl]pyrazin-2-yl}-2-fluorobenzenecarbonitrile], the IC50 in experiment [2] is under 100 nM; in experiment [1] (Homo sapiens, 96 h), under 100 nM.

Turning to `CNC1CCN(c2cnc(-c3cnc4c(cnn4C)c3)c(-c3ccc(C#N)c(F)c3)n2)CC1` [Example 59, 2-fluoro-4-{6-[4-(methylamino)piperidyl]-3-(1-methylpyrazolo[5,4-b]pyridin-5-yl)pyrazin-2-yl}benzenecarbonitrile], the IC50 is under 100 nM in experiment [2] and under 100 nM in experiment [1] (Homo sapiens, 96 h).

Consider `CN(C)C1CCN(c2cnc(-c3ccc4nn(C)cc4c3)c(-c3ccc(C#N)c(F)c3)n2)CC1` [Example 60, 4-{6-[4-(dimethylamino)piperidyl]-3-(2-methyl(2H-indazol-5-yl))pyrazin-2-yl}-2-fluorobenzenecarbonitrile], for which the IC50 was under 100 nM in experiment [2] and under 100 nM in experiment [1] (Homo sapiens, 96 h).

With `CNC1CCN(c2cnc(-c3cc4ncn(C)c4cc3F)c(-c3ccc(C#N)c(F)c3)n2)CC1` [Example 61, 2-fluoro-4-[3-(6-fluoro-1-methylbenzimidazol-5-yl)-6-[4-(methylamino)piperidin-1-yl]pyrazin-2-yl]benzonitrile], the IC50 was under 100 nM in experiment [2] and under 100 nM in experiment [1] (Homo sapiens, 96 h).

Regarding `CNC1CCN(c2cnc(-c3cc4ncn(C)c4c(F)c3F)c(-c3ccc(C#N)c(F)c3)n2)CC1` [Example 62, 4-[3-(6,7-difluoro-1-methylbenzimidazol-5-yl)-6-[4-(methylamino)piperidin-1-yl]pyrazin-2-yl]-2-fluorobenzonitrile], the IC50 in experiment [2] is under 100 nM; in experiment [1] (Homo sapiens, 96 h), under 100 nM.

Regarding `CNC1CCN(c2cnc(-c3ccc(OC)c(F)c3)c(-c3ccc(C#N)c(F)c3)n2)CC1` [Example 63], the IC50 in experiment [2] was under 100 nM; in experiment [1] (Homo sapiens, 96 h), under 100 nM.

For the compound `CNC1CCN(c2cnc(C#CC3(O)CCCC3)c(-c3ccc(C#N)c(F)c3)n2)CC1` [Example 64, 2-fluoro-4-[3-[2-(1-hydroxycyclopentyl)ethynyl]-6-[4-(methylamino)piperidin-1-yl]pyrazin-2-yl]benzonitrile], the IC50 in experiment [2] was under 100 nM; in experiment [1] (Homo sapiens, 96 h) it was under 100 nM.

For `CNC1CCN(c2cnc(-c3ccc4c(c3)ncn4C)c(-c3ccc(C#N)c(F)c3)n2)CC1` [Example 65, 2-fluoro-4-[6-[4-(methylamino)piperidin-1-yl]-3-(1-methylbenzimidazol-5-yl)pyrazin-2-yl]benzonitrile], the IC50 in experiment [2] was under 100 nM; in experiment [1] (Homo sapiens, 96 h), under 100 nM.

For the compound `CNC1CCN(c2cnc(C#CC(C)(C)O)c(-c3ccc(C#N)c(F)c3)n2)CC1` [Example 66, 2-fluoro-4-[3-(3-hydroxy-3-methylbut-1-ynyl)-6-[4-(methylamino)piperidin-1-yl]pyrazin-2-yl]benzonitrile], the IC50 in experiment [2] was under 100 nM; in experiment [1] (Homo sapiens, 96 h), under 100 nM.

In the case of `CNC1CCN(c2cnc(-c3cc4ncn(C(C)C)c4cc3F)c(-c3ccc(C#N)c(F)c3)n2)CC1` [Example 67, 2-fluoro-4-[3-(6-fluoro-1-propan-2-ylbenzimidazol-5-yl)-6-[4-(methylamino)piperidin-1-yl]pyrazin-2-yl]benzonitrile], the IC50 in experiment [2] was under 100 nM; in experiment [1] (Homo sapiens, 96 h), under 100 nM.

Regarding `CNC1CCN(c2cnc(-c3ccc4c(c3)ncn4C(C)C)c(-c3ccc(C#N)c(F)c3)n2)CC1` [Example 68, 2-fluoro-4-[6-[4-(methylamino)piperidin-1-yl]-3-(1-propan-2-ylbenzimidazol-5-yl)pyrazin-2-yl]benzonitrile], the IC50 in experiment [2] was under 100 nM; in experiment [1] (Homo sapiens, 96 h), under 100 nM.

As for `CCn1cnc2cc(-c3ncc(N4CCC(NC)CC4)nc3-c3ccc(C#N)c(F)c3)c(F)cc21` [Example 69, 4-[3-(1-ethyl-6-fluorobenzimidazol-5-yl)-6-[4-(methylamino)piperidin-1-yl]pyrazin-2-yl]-2-fluorobenzonitrile], the IC50 in experiment [2] was under 100 nM; in experiment [1] (Homo sapiens, 96 h) it was under 100 nM.

As for `CC(C)n1cnc2cc(-c3ncc(N4CCC(N)CC4)nc3-c3ccc(C#N)c(F)c3)c(F)cc21` [Example 70, 4-[6-(4-aminopiperidin-1-yl)-3-(6-fluoro-1-propan-2-ylbenzimidazol-5-yl)pyrazin-2-yl]-2-fluorobenzonitrile], the IC50 was under 100 nM in experiment [2] and under 100 nM in experiment [1] (Homo sapiens, 96 h).

For the compound `CCn1cnc2cc(-c3ncc(N4CCC(N)CC4)nc3-c3ccc(C#N)c(F)c3)c(F)cc21` [Example 71, 4-[6-(4-aminopiperidin-1-yl)-3-(1-ethyl-6-fluorobenzimidazol-5-yl)pyrazin-2-yl]-2-fluorobenzonitrile], the IC50 in experiment [2] was under 100 nM; in experiment [1] (Homo sapiens, 96 h) it was under 100 nM.

`CC(C)n1cnc2cc(-c3ncc(N4CCC(N)CC4)nc3-c3ccc(C#N)c(F)c3)ccc21` [Example 72, 4-[6-(4-aminopiperidin-1-yl)-3-(1-propan-2-ylbenzimidazol-5-yl)pyrazin-2-yl]-2-fluorobenzonitrile]: the IC50 in experiment [2] was under 100 nM; in experiment [1] (Homo sapiens, 96 h) it was under 100 nM.

On to `CC(C)n1cnc2cc(-c3ncc(N4CCC(N)CC4)nc3-c3ccc(C#N)c(F)c3)c(F)c(F)c21` [Example 73, 4-[6-(4-aminopiperidin-1-yl)-3-(6,7-difluoro-1-propan-2-ylbenzimidazol-5-yl)pyrazin-2-yl]-2-fluorobenzonitrile], for which the IC50 in experiment [2] is under 100 nM; in experiment [1] (Homo sapiens, 96 h), under 100 nM.
